From patent US12448369B2 (Edgewise Therapeutics, Inc., priority 2023, dated 2025)
Marks after values point to notes of the source that are not given here.

Assays:
[1] = system: Rabbit Psoas myofibrils (skeletal myosin ATPase); experiment: Myofibril ATPase assay, rabbit psoas (skeletal) myofibrils; type: biochemical; settings: rabbit psoas myofibrils; for Skeletal EC25 (Y125 value, marked ‡): not a Y75 value
Outline: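 Values derive from concentration–response fits of NADH consumption rates at 340 nm, normalized to vehicle-only wells, as Y75 or Y125. Myofibril ATP turnover was linked to NADH via PK/LDH in Ca/EGTA-buffered PIPES, pH 7.0, and read over 75 min.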

[2] = system: Porcine atria myofibrils (atrial myosin ATPase); experiment: Myofibril ATPase assay, porcine atria myofibrils; type: biochemical; settings: porcine atria myofibrils; for Atrial EC25 (Y125 value, marked ‡): Y125 value (125% activity), not a Y75 value
Outline: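 Atrial myofibril ATPase measured by NADH-coupled absorbance at 340 nm; vehicle-normalized slopes fitted to give Y75 or Y125 values.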

[3] = target: T1, Porcine ventricle myofibrils (ventricular myosin ATPase) (Sus scrofa, UniProt P79293); experiment: Myofibril ATPase assay, porcine ventricle myofibrils; type: biochemical, porcine (Yucatan minipigs); settings: porcine ventricle myofibrils
T1 construct: Myofibrils from porcine cardiac muscle was isolated from the left ventricle of Yucatan minipigs; tissue Exemplar Genetics; host or cells: left ventricle of Yucatan minipigs, myofibrils prepared in house
Outline: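 ATPase activity of porcine left-ventricle myofibrils (Yucatan minipig) was followed through PK-LDH coupling as NADH loss at 340 nm, read every 1.5-2 min for 75 min. Slopes were normalised to vehicle wells and fitted to a 4-parameter logistic model. Values are Y75, the concentration giving a 25% drop in activity, or Y125 for activators.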

[4] = ‡ Y125 value, not a Y75 value (125% activity relative to no compound)
[5] = Y75 value (75% activity relative to no compound)

T1 sequence (P79293 whole entry): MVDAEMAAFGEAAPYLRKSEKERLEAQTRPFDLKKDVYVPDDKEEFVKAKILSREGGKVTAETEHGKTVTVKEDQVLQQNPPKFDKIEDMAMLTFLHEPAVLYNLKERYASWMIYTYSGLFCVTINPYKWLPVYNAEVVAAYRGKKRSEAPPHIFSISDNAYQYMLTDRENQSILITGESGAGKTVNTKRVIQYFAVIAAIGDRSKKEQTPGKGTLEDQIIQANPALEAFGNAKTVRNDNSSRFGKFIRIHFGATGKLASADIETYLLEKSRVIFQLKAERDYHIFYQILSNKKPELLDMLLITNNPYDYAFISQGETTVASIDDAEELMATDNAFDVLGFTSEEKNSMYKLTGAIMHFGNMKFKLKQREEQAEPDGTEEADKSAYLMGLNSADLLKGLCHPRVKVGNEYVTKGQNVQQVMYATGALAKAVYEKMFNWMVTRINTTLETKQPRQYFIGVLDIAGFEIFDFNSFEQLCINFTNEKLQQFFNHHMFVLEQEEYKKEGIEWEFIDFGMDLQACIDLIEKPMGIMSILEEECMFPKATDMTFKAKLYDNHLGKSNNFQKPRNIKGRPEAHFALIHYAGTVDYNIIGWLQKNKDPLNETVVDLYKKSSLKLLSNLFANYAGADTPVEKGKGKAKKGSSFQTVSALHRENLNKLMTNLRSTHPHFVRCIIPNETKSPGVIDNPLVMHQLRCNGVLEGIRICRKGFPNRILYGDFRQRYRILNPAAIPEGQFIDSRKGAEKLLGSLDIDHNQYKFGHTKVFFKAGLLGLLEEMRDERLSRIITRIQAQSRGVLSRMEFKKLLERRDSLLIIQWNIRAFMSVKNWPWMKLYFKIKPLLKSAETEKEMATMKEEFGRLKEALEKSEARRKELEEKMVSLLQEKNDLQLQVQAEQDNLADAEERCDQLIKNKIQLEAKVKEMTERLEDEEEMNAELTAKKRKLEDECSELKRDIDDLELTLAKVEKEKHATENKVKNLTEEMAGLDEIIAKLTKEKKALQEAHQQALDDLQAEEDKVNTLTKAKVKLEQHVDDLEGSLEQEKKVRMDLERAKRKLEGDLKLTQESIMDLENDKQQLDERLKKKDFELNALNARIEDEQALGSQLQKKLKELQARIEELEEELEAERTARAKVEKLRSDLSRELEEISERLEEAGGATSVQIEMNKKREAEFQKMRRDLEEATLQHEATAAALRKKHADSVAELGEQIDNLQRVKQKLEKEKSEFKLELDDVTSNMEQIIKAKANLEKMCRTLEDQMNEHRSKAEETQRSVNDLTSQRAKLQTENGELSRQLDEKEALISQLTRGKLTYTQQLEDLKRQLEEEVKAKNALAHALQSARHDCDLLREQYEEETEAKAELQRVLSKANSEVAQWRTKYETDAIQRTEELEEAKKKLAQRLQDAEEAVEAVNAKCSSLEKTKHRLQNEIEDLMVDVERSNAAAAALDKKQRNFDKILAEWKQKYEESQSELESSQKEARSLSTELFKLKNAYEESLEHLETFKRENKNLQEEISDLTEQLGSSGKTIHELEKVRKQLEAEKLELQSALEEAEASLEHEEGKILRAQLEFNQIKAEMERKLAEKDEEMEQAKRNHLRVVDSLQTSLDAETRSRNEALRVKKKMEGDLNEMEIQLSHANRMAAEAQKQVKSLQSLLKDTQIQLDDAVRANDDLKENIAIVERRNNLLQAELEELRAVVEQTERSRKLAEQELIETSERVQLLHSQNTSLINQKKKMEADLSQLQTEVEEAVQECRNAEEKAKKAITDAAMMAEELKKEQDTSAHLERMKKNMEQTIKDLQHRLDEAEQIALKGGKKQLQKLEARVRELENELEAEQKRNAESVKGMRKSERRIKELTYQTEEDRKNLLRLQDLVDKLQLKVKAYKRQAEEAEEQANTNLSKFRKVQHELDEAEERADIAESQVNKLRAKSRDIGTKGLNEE

SMILES	Atrial EC25 ([2]; Y75 value (no ‡ mark))	Skeletal EC25 ([1]; Y75 value)	Atrial EC25 [2, 5]	Ventricular EC25 ([3]; Y75 value)	other results
Cc1c(C(F)(F)C(=O)N[C@@H](C)c2ncc(C#N)cn2)c(=O)[nH]c2ccc(F)cc12 (single isomer, unassigned) [compound 2595]	0.36 µM				Skeletal EC25 ([1]; Y75 value (no ‡ mark)): 0.17 µM; Ventricular EC25 ([3]; Y75 value (no ‡ mark)): 0.45 µM
C[C@@H](NC(=O)[C@H](C)c1cc2c(F)c(F)ccc2[nH]c1=O)c1ncc(C#N)cc1F (single isomer, unassigned) [compound 2598]	0.60 µM				Skeletal EC25 [1, 4]: 100.00‡ μM; Ventricular EC25 ([3]; Y75 value (no ‡ mark)): 1.10 µM
C[C@H](C(=O)N[C@H](C)c1ncc(C#N)cc1F)c1cc2c(F)c(F)ccc2[nH]c1=O (single isomer, unassigned) [compound 2599]	2.16 µM				Skeletal EC25 [1, 4]: 100.00‡ μM; Ventricular EC25 ([3]; Y75 value (no ‡ mark)): 16.66 µM
Cc1c([C@H](C)C(=O)N[C@H](C)c2ncc(C#N)cc2F)c(=O)[nH]c2ccc(F)c(F)c12 (single isomer, unassigned) [compound 2601]	0.04 µM				Skeletal EC25 ([1]; Y75 value (no ‡ mark)): 0.04 µM; Ventricular EC25 ([3]; Y75 value (no ‡ mark)): 0.07 µM
Cc1c([C@H](C)C(=O)N[C@@H](C)c2ncc(C#N)cc2F)c(=O)[nH]c2ccc(F)c(F)c12 (single isomer, unassigned) [compound 2603]	0.06 µM				Skeletal EC25 ([1]; Y75 value (no ‡ mark)): 0.03 µM; Ventricular EC25 ([3]; Y75 value (no ‡ mark)): 0.21 µM
Cc1c(C(F)(F)C(=O)N[C@H](C)c2ncc(C#N)cc2F)c(=O)[nH]c2ccc(F)cc12 (single isomer, unassigned) [compound 2606]	0.08 µM				Skeletal EC25 ([1]; Y75 value (no ‡ mark)): 0.10 µM; Ventricular EC25 ([3]; Y75 value (no ‡ mark)): 0.77 µM
Cc1c(C(F)(F)C(=O)N[C@@H](C)c2ncc(C#N)cc2F)c(=O)[nH]c2ccc(F)cc12 (single isomer, unassigned) [compound 2607]	0.07 µM				Skeletal EC25 ([1]; Y75 value (no ‡ mark)): 0.04 µM; Ventricular EC25 ([3]; Y75 value (no ‡ mark)): 0.17 µM
C[C@H](NC(=O)[C@@H](C)c1cc2cc(F)ccc2[nH]c1=O)c1ccc(F)cc1F (single isomer, unassigned) [compound 2608]	100.00 µM				Skeletal EC25 ([1]; Y75 value (no ‡ mark)): 100.00 µM; Ventricular EC25 [3, 4]: 44.26‡ μM
C[C@@H](NC(=O)Cc1c(C(F)(F)F)c2c(C3CC3)nccc2[nH]c1=O)c1ncc(C#N)cn1 (single isomer, unassigned) [compound 3001]		4.13 µM	1.25 µM	17.65 µM	
C[C@H](NC(=O)Cc1c(C(F)(F)F)c2c(C3CC3)nccc2[nH]c1=O)c1ncc(C#N)cn1 (single isomer, unassigned) [compound 3002]		100.00 µM	100.00 µM	100.00 µM	
C[C@@H](NC(=O)Cc1c(C(F)(F)F)c2c(C3CC3)nccc2[nH]c1=O)c1ccc(C#N)nn1 (single isomer, unassigned) [compound 3003]				100.00 µM	Skeletal EC25 (Y125 value, marked ‡) [1]: 94.25‡ μM; Atrial EC25 (Y125 value, marked ‡) [2]: 92.51‡ μM
C[C@H](NC(=O)Cc1c(C(F)(F)F)c2c(C3CC3)nccc2[nH]c1=O)c1ccc(C#N)nn1 (single isomer, unassigned) [compound 3004]		5.99 µM	10.04 µM	100.00 µM	
C[C@@H](NC(=O)Cc1c(C(F)(F)F)c2c(C3CC3)nccc2[nH]c1=O)c1ccc(C#N)cn1 (single isomer, unassigned) [compound 3005]		100.00 µM	100.00 µM	100.00 µM	
C[C@H](NC(=O)Cc1c(C(F)(F)F)c2c(C3CC3)nccc2[nH]c1=O)c1ccc(C#N)cn1 (single isomer, unassigned) [compound 3006]		100.00 µM		100.00 µM	Atrial EC25 (Y125 value, marked ‡) [2]: 77.22‡ μM
COc1nccc2[nH]c(=O)c(CC(=O)N[C@H](C)c3ncc(C#N)cn3)c(C(F)(F)F)c12 (single isomer, unassigned) [compound 3007]		100.00 µM	100.00 µM	5.73 µM	
COc1nccc2[nH]c(=O)c(CC(=O)N[C@H](C)c3ncc(C#N)cc3F)c(C(F)(F)F)c12 (single isomer, unassigned) [compound 3009]		100.00 µM	0.14 µM	2.17 µM	
COc1nccc2[nH]c(=O)c(CC(=O)N[C@@H](C)c3ncc(C#N)cc3F)c(C(F)(F)F)c12 (single isomer, unassigned) [compound 3010]		0.63 µM	0.70 µM	3.57 µM	
Cc1c(C(F)(F)C(=O)N[C@H](CO)c2ncc(C#N)cc2F)c(=O)[nH]c2ccnc(C#N)c12 (single isomer, unassigned) [compound 3502]		0.08 µM	0.15 µM	0.31 µM	
Cc1nc(C#N)cnc1[C@@H](C)NC(=O)C(F)(F)c1c(C)c2c(C)nccc2[nH]c1=O (single isomer, unassigned) [compound 3503]		0.89 µM	3.50 µM	5.70 µM	
Cc1c(C(F)(F)C(=O)N[C@@H](CO)c2ncc(C#N)cc2F)c(=O)[nH]c2ccnc(C#N)c12 (single isomer, unassigned) [compound 3504]		1.04 µM	0.77 µM	4.90 µM	
Cc1nc(C#N)cnc1[C@H](C)NC(=O)C(F)(F)c1c(C)c2c(C)nccc2[nH]c1=O (single isomer, unassigned) [compound 3505]		4.70 µM	1.90 µM	13.00 µM	
CC(C(=O)N[C@@H](C)c1ccc(F)cc1F)c1cc2c(C(F)(F)F)nccc2[nH]c1=O (single isomer, unassigned) [compound 3518]		9.37 µM	2.05 µM	100.00 µM	

More lines, main results first:

Atrial EC25 ([2]; Y75 value (no ‡ mark))	Skeletal EC25 ([1]; Y75 value)	Atrial EC25 [2, 5]	Ventricular EC25 ([3]; Y75 value)	SMILES	other results
0.11 µM				Cc1c(C2(C(=O)N[C@H](C)c3ncc(C#N)cc3F)CC2)c(=O)[nH]c2ccc(F)cc12 (single isomer, unassigned) [compound 2596]	Skeletal EC25 ([1]; Y75 value (no ‡ mark)): 0.16 µM; Ventricular EC25 ([3]; Y75 value (no ‡ mark)): 0.55 µM
0.09 µM				Cc1c(C2(C(=O)N[C@@H](C)c3ncc(C#N)cc3F)CC2)c(=O)[nH]c2ccc(F)cc12 (single isomer, unassigned) [compound 2597]	Skeletal EC25 ([1]; Y75 value (no ‡ mark)): 0.12 µM; Ventricular EC25 ([3]; Y75 value (no ‡ mark)): 0.39 µM
	100.00 µM	2.61 µM	18.82 µM	Cc1nccc2[nH]c(=O)c(C3(C(=O)N[C@@H](C)c4ncc(C#N)cc4F)CC3)c(C)c12 (single isomer, unassigned) [compound 3507]	
	0.07 µM	0.22 µM	0.29 µM	Cc1nccc2[nH]c(=O)c(C(F)(F)C(=O)N[C@@H](C)c3ccc(C#N)cc3F)c(C)c12 (single isomer, unassigned) [compound 3508]	
	0.16 µM	0.44 µM	1.30 µM	Cc1c(C(F)(F)C(=O)N[C@H](C)c2ncc(C#N)cc2F)c(=O)[nH]c2ccnc(C#N)c12 (single isomer, unassigned) [compound 3510]	
	0.26 µM	0.56 µM	2.65 µM	Cc1nccc2[nH]c(=O)c(C(F)(F)C(=O)N[C@H](C)c3ccc(C#N)cc3F)c(C)c12 (single isomer, unassigned) [compound 3511]	
	0.71 µM	1.65 µM		Cc1nccc2[nH]c(=O)c(C3(C(=O)N[C@@H](C)c4ccc(C#N)cc4F)CC3)c(C)c12 (single isomer, unassigned) [compound 3512]	Ventricular EC25 (Y125 value, marked ‡) ([3]; Y125 value, not a Y75 value): 100.00‡ μM
	5.80 µM	4.94 µM	62.33 µM	Cc1nccc2[nH]c(=O)c(C(F)(F)C(=O)N[C@H](C)c3ncc(C#N)cc3F)c(C)c12 (single isomer, unassigned) [compound 3513]	
	0.24 µM	0.51 µM	1.49 µM	Cc1nccc2[nH]c(=O)c(C3(C(=O)N[C@H](C)c4ccc(C#N)cc4F)CC3)c(C)c12 (single isomer, unassigned) [compound 3516]	
	0.38 µM	1.12 µM	2.11 µM	Cc1nccc2[nH]c(=O)c(C(F)(F)C(=O)N[C@@H](C)c3ncc(C#N)cc3F)c(C)c12 (single isomer, unassigned) [compound 3517]	
		0.94 µM	17.07 µM	Cc1nccc2[nH]c(=O)c(C3(C(=O)N[C@H](C)c4ncc(C#N)cc4F)CC3)c(C)c12 (single isomer, unassigned) [compound 3519]	Skeletal EC25 (Y125 value, marked ‡) [1]: 97.12‡ μM
